Assay results published in BigSolDB 2.1.

Q: Which solubility (mole fraction) (in 1,4-dioxane, 298.15 K) does the source give for NC(N)=C([N+](=O)[O-])[N+](=O)[O-] here?
A: 7.2e-05

Q: What about the solubility (mole fraction) (in 1,4-dioxane, 314.15 K) of the same molecule?
A: 0.000102

Q: And the solubility (mole fraction) (in 1,4-dioxane, 326.85 K)?
A: 0.000143

Q: What about the solubility (mole fraction) (in 1,4-dioxane, 339.65 K) of the same molecule?
A: 0.000215

Q: What about the solubility (mole fraction) (in 1,4-dioxane, 341.45 K) of the same molecule?
A: 0.000257

Q: And the solubility (mole fraction) (in 1,4-dioxane, 347.55 K)?
A: 0.000315

Q: And the solubility (mole fraction) (in 1,4-dioxane, 358.35 K)?
A: 0.000357

Q: And the solubility (mole fraction) (in DEF, 298.35 K)?
A: 0.0702

Q: And the solubility (mole fraction) (in DEF, 314.15 K)?
A: 0.0824

Q: And the solubility (mole fraction) (in DEF, 324.95 K)?
A: 0.0914

Q: What about the solubility (mole fraction) (in DEF, 340.15 K) of the same molecule?
A: 0.102

Q: And the solubility (mole fraction) (in DEF, 349.85 K)?
A: 0.112

Q: And the solubility (mole fraction) (in DEF, 367.45 K)?
A: 0.15

Q: And the solubility (mole fraction) (in DMF, 297.15 K)?
A: 0.0946

Q: What about the solubility (mole fraction) (in DMF, 310.75 K) of the same molecule?
A: 0.109

Q: What about the solubility (mole fraction) (in DMF, 327.85 K) of the same molecule?
A: 0.122

Q: And the solubility (mole fraction) (in DMF, 340.15 K)?
A: 0.136

Q: What about the solubility (mole fraction) (in DMF, 352.75 K) of the same molecule?
A: 0.148

Q: What about the solubility (mole fraction) (in DMF, 361.05 K) of the same molecule?
A: 0.161

Q: And the solubility (mole fraction) (in DMF, 365.15 K)?
A: 0.173

Q: What about the solubility (mole fraction) (in DMSO, 293.75 K) of the same molecule?
A: 0.183

Q: What about the solubility (mole fraction) (in DMSO, 303.85 K) of the same molecule?
A: 0.188

Q: And the solubility (mole fraction) (in DMSO, 312.15 K)?
A: 0.193

Q: What about the solubility (mole fraction) (in DMSO, 319.15 K) of the same molecule?
A: 0.204

Q: What about the solubility (mole fraction) (in DMSO, 328.65 K) of the same molecule?
A: 0.214

Q: And the solubility (mole fraction) (in DMSO, 339.85 K)?
A: 0.224

Q: What about the solubility (mole fraction) (in DMSO, 350.15 K) of the same molecule?
A: 0.233

Q: What about the solubility (mole fraction) (in DMSO, 354.15 K) of the same molecule?
A: 0.238

Q: And the solubility (mole fraction) (in DMSO, 358.15 K)?
A: 0.242

Q: And the solubility (mole fraction) (in DMSO, 367.15 K)?
A: 0.261

Q: What about the solubility (mole fraction) (in NMP, 295.05 K) of the same molecule?
A: 0.163

Q: And the solubility (mole fraction) (in NMP, 318.15 K)?
A: 0.186

Q: What about the solubility (mole fraction) (in NMP, 344.45 K) of the same molecule?
A: 0.207

Q: What about the solubility (mole fraction) (in NMP, 363.85 K) of the same molecule?
A: 0.227

Q: What about the solubility (mole fraction) (in NMP, 371.75 K) of the same molecule?
A: 0.246

Q: What about the solubility (mole fraction) (in cyclohexanone, 291.95 K) of the same molecule?
A: 0.00244

Q: What about the solubility (mole fraction) (in cyclohexanone, 320.85 K) of the same molecule?
A: 0.00434

Q: What about the solubility (mole fraction) (in cyclohexanone, 330.95 K) of the same molecule?
A: 0.00521

Q: And the solubility (mole fraction) (in cyclohexanone, 335.65 K)?
A: 0.0061

Q: What about the solubility (mole fraction) (in cyclohexanone, 343.15 K) of the same molecule?
A: 0.00693

Q: And the solubility (mole fraction) (in cyclohexanone, 360.85 K)?
A: 0.0104

Q: What about the solubility (mole fraction) (in cyclohexanone, 370.35 K) of the same molecule?
A: 0.0138

Q: And the solubility (mole fraction) (in ethyl acetate, 296.15 K)?
A: 0.000116

Q: What about the solubility (mole fraction) (in ethyl acetate, 304.95 K) of the same molecule?
A: 0.000187

Q: And the solubility (mole fraction) (in ethyl acetate, 314.75 K)?
A: 0.00027

Q: And the solubility (mole fraction) (in ethyl acetate, 318.15 K)?
A: 0.000282

Q: And the solubility (mole fraction) (in ethyl acetate, 324.35 K)?
A: 0.000332

Q: And the solubility (mole fraction) (in ethyl acetate, 326.55 K)?
A: 0.000368

Q: What about the solubility (mole fraction) (in ethyl acetate, 334.15 K) of the same molecule?
A: 0.000444

Q: What about the solubility (mole fraction) (in ethyl acetate, 344.65 K) of the same molecule?
A: 0.000544

Q: And the solubility (mole fraction) (in gamma-butyrolactone, 300.15 K)?
A: 0.0064

Q: What about the solubility (mole fraction) (in gamma-butyrolactone, 304.15 K) of the same molecule?
A: 0.0077

Q: What about the solubility (mole fraction) (in gamma-butyrolactone, 324.55 K) of the same molecule?
A: 0.0128

Q: What about the solubility (mole fraction) (in gamma-butyrolactone, 332.55 K) of the same molecule?
A: 0.0153

Q: And the solubility (mole fraction) (in gamma-butyrolactone, 336.45 K)?
A: 0.0178

Q: And the solubility (mole fraction) (in gamma-butyrolactone, 343.45 K)?
A: 0.0202

Q: And the solubility (mole fraction) (in gamma-butyrolactone, 346.25 K)?
A: 0.0227

Q: And the solubility (mole fraction) (in gamma-butyrolactone, 350.85 K)?
A: 0.0252

Q: And the solubility (mole fraction) (in gamma-butyrolactone, 357.85 K)?
A: 0.0313

Q: And the solubility (mole fraction) (in gamma-butyrolactone, 368.55 K)?
A: 0.0373

Q: What about the solubility (mole fraction) (in water, 296.15 K) of the same molecule?
A: 2e-05

Q: What about the solubility (mole fraction) (in water, 303.45 K) of the same molecule?
A: 3.5e-05

Q: And the solubility (mole fraction) (in water, 310.75 K)?
A: 6e-05

Q: And the solubility (mole fraction) (in water, 318.65 K)?
A: 0.000122

Q: And the solubility (mole fraction) (in water, 326.15 K)?
A: 0.000154

Q: And the solubility (mole fraction) (in water, 328.55 K)?
A: 0.000198

Q: What about the solubility (mole fraction) (in water, 337.95 K) of the same molecule?
A: 0.000277

Q: What about the solubility (mole fraction) (in water, 343.15 K) of the same molecule?
A: 0.000365

Q: What about the solubility (mole fraction) (in water, 348.75 K) of the same molecule?
A: 0.000504
